Data reported in article PMC11760092, “Pretreatment with serine protease inhibitors impairs Leishmania amazonensis survival on macrophages” (Parasites & Vectors, 2025).
Like-named read-outs stand apart in the source and are kept apart here.

Columns and labels:
[1] = system: Leishmania amazonensis-WT promastigotes; assay: Antipromastigote assay (MTT); assay type: cell-based; details: 72 h of incubation; interval in brackets; read-out: Antileishmanial effect in Leishmania amazonensis IC50 Promastigote
Description: Leishmania amazonensis–WT promastigotes, in the logarithmic phase of growth, were transferred to 96-well culture plates (final concentration 2 × 10^6 cells/mL) and exposed to different concentrations of inhbitors during 72 h at 25 °C. The cell viability was evaluated by the 3-(4,5-dimethylthiazol-2-yl)-2,5 diphenyltetrazolium bromide (MTT) method (obtained from Sigma-Aldrich). The inhibitory concentration of 50% of parasite growth (IC50) values were calculated using GraphPad Prism 8 software […]. Three independent experiments in triplicate were performed. Amphotericin B (Cristália, São Paulo, SP, Brazil) was used as a reference drug.

Cytotoxicity assay (MTT) = assay type: cell-based, BALB/c mice; details: BALB/c, mouse
Description: To determinate the toxicity of the inhibitors on mammalian cells, peritoneal macrophages from BALB/c mice, obtained by peritoneal lavage, in concentration of 2 × 10^6 macrophages/mL, were adhered in 96-well culture plates overnight at 37 °C with 5% CO2. The inhibitors were then added in different concentrations and incubated for 72 h at 37 °C and 5% CO2. Cell viability was also assessed by the MTT method. Cytotoxic concentration of 50% of macrophages (CC50) values were calculated using GraPadPrism 8 software. Three independent experiments in triplicate were performed.

[2] = system: L. donovani serine proteases; design: method as in PMID 26040107; details: cited from earlier work
[3] = system: Leishmania amazonensis-RFP promastigotes; assay: Viability of promastigotes after 1 h of treatment with inhibitors; assay type: cell-based; details: 1 h treatment, washed; for viability of promastigotes after 1 h of treatment, compared with the control: 0 h, 24 h, 48 h and 72 h of incubation
Description: Leishmania amazonensis-RFP promastigotes were treated with different concentrations of inhibitors during 1 h at 25 °C and were washed with PBS. Then, these cells had their viability determined by fluorescence analysis using a spectrofluorimeter (time = 0 h) and were also reincubated in complete RPMI medium for subsequent analysis of cell viability after 24 h, 48 h, and 72 h (times = 24 h, 48 h, and 72 h) by fluorescence analysis.

[4] = system: L. donovani in RAW 264.7 cells; design: method as in PMID 26040107; details: promastigotes pretreated 2 h; cited from earlier work
[5] = system: L. donovani promastigotes; design: method as in PMID 26040107; details: cited from earlier work; for cell viability of L. donovani promastigotes: aprotinin 1 µM, benzamidine 1 mM, after 5 h, 10 h, 15 h and 20 h of incubation
[6] = system: L. amazonensis (RFP) amastigotes; assay: Antiamastigote assay (RFP fluorescence, infected peritoneal macrophages); assay type: cell-based; details: Leishmania amazonensis, Peritoneal macrophage; 72 h of incubation; interval in brackets; read-out: Antileishmanial effect in Leishmania amazonensis IC50 Amastigote
Description: Peritoneal macrophages from BALB/c mice were obtained by peritoneal lavage and distributed in 24-well plates at 2 × 10^6 cells/mL in RPMI medium (Cultilab) containing 10% FBS and a 0.5% penicillin and streptomycin solution (complete RPMI). The plates were incubated for 1 h at 37 °C and 5% CO2, washed with phosphate-buffered saline (PBS), and then reincubated in complete RPMI medium overnight. The cells were washed again with PBS and infected with stationary growth phase L. amazonensis (RFP) promastigotes at a 10:1 ratio for 4 h at 33 °C. The plates were washed with PBS and the inhibitors were added at different concentrations and incubated for 72 h. After this time, each well was scraped to remove attached cells and the reading was taken with a spectrofluorimeter (FLx800, BioTek Instruments, Winooski, VT, USA) at 530 nm and 590 nm of excitation and emission, respectively. […] All assays were performed in triplicate and repeated three times. Results were calculated as the percentage of amastigote survival compared with the nontreated control group, and IC50 values were determined using GraphPad Prism 8 software.

[7] = system: L. amazonensis promastigotes; design: method as in PMID 17726617; details: 24 h, cited from earlier work
[8] = system: L. amazonensis in peritoneal macrophages; assay: Promastigote pretreatment and infection of peritoneal macrophages; assay type: cell-based, Leishmania amazonensis; details: for entry of promastigotes into macrophages: promastigotes pretreated 1 h, 0 h after 4 h interaction; for conversion of promastigotes into amastigotes: pretreated parasites (PF-429242 3.2 µM, TPCK 30 µM); for number of intracellular amastigotes (Giemsa, Supplementary Fig. 1): pretreatment with PF-429242 3.2 µM or TPCK 30 µM
Description: (§1) Leishmania amazonensis-RFP promastigotes were pretreated with different concentrations of inhbitors during 1 h at 25 °C. The cells were washed with PBS and used to infect peritoneal macrophages from BALB/c mice (10:1 ratio), not pretreated or pretreated with 0.5 ng/mL IFN-γ overnight, in 24-well plates. After 4 h of interaction, the plates were washed with PBS and (1) scraped to remove attached cells and read using a spectrofluorimeter (time = 0 h) or (2) incubated at 33 °C with 5% CO2 for 24 h, 48 h, and 72 h for later scraping and reading (times = 24 h, 48 h, and 72 h). Three experiments were performed, each one with three replicates.
The same experiment was repeated, but using 13 mm glass coverslips in 24-well plates. The fixation with ethanol and staining with Giemsa were performed. Subsequently, the slides were examined in an optical microscope (Olympus BX53, Shinjuku, Tokyo, Japan) and photographed (Olympus DP73, Shinjuku, Tokyo, Japan).

[9] = system: L. amazonensis serine proteases; assay: Enzymatic assay on promastigote lysate with substrate ABZ-V-F-R-S-L-K-Q EDDnp; assay type: biochemical, Leishmania amazonensis; details: first 10 min; for enzymatic activity of L. amazonensis serine proteases: 2.5 µM inhibitor
Description: The enzymatic assay was conducted in a final volume of 200 µL per well, containing 1 µM of substrate, supernatant of lysate of 3.7 × 10^6 parasites, 2.5 µM of inhibitors (PF-429242 and TPCK) or 3 µM of E-64 in Tris-buffered pH 8. Substrate ABZ-V-F-R-S-L-K-Q EDDnp was used, which was provided by Dr. Luiz Juliano Neto from the Department of Biophysics of UNIFESP-EPM and is described in Alves, L.C. et al.. The lysate was prepared with promastigotes in stationary phase of growth, washed three times with PBS pH 7.2, and in the last wash it was resuspended in Tris-buffered pH 8 with 1% NP40. The parasites were submitted to five rapid freeze–thaw cycles in liquid nitrogen. The lysate was centrifuged at 20,000g for 10 min at […]. The supernatant was stored at −20 °C until use. The read was carried out using the spectrofluorimeter SoftMax M3 with excitation/emission of 320/420 nm.

[10] = system: NO production by host macrophages; assay: Determination of nitric oxide (NO) levels (Griess method); assay type: cell-based, BALB/c mice; details: supernatant of macrophages infected with promastigotes pretreated for 1 h
Description: Supernatant from cultures of L. amazonensis-infected macrophages, in which promastigotes were pretreated or not with PF-429242 or TPCK, was collected, and NO levels were determined by the Griess method. NO levels were determined in aliquots of 50 µL of the supernatant, to which 50 µL of the Griess reagent were added (Griess Reagent: 1% sulfanilamide in 2.5% of H3PO4 + 0.1% N-1-diidrocloride naftiletilenodiamine in 2.5% H3PO4), in a 96-well microplate. Nitrite content was quantified by comparison with a sodium nitrite standard curve. The absorbance was measured at 540 nm using a spectrophotometer (Multiskan EX, Thermo Electron Corporation, Vantaa, Finland). The assays were carried out in duplicate and three independent experiments were realized. Macrophages prestimulated with 0.5 ng/mL IFN-γ overnight and infected with L. amazonensis promastigotes without pretreatment were used as positive controls.

[11] = system: peritoneal macrophages from BALB/c mice; design: method as in PMID 35678670, PMID 33584607, PMID 35890269; details: 72 h of incubation; previously published data (*); cited from earlier work
[12] = system: Leishmania amazonensis-WT promastigotes; design: method as in PMID 35678670, PMID 33584607, PMID 35890269; details: 72 h of incubation; previously published data (*); read-out: Antileishmanial effect in Leishmania amazonensis IC50 Promastigote; cited from earlier work
L. amazonensis = details: mice infected with L. amazonensis; cited from earlier work
[13] = system: L. amazonensis promastigotes and amastigotes; details: cited from earlier work
[14] = system: L. amazonensis (RFP) amastigotes; design: method as in PMID 35678670, PMID 33584607, PMID 35890269; details: 72 h of incubation; previously published data (*); read-out: Antileishmanial effect in Leishmania amazonensis IC50 Amastigote; cited from earlier work
[15] = system: L. amazonensis in peritoneal macrophages prestimulated with IFN-γ; assay: Promastigote pretreatment and infection of macrophages prestimulated with IFN-γ; assay type: cell-based, Leishmania amazonensis; details: macrophages prestimulated with 0.5 ng/mL IFN-γ overnight; promastigotes pretreated 1 h
Description: as §1

Row | Compound | IC50 [1] [µM] | viability of promastigotes after 1 h of treatment, compared with the control [3] | intracellular survival of the parasites (ranking of inhibitors) [4] | cell viability of L. donovani promastigotes [5] | entry of promastigotes into macrophages [8] | NO production versus control group [10] | CC50 [11] [µM] | IC50 [12] [µM] | IC50 [14] [µM] | enzymatic activity of L. amazonensis serine proteases [9] | conversion of promastigotes into amastigotes [8] | number of intracellular amastigotes (Giemsa, Supplementary Fig. 1) ([8]; 48 h and 72 h after infection) | intracellular survival of L. amazonensis [15] | further results
1 | C[C@@H]1[C@H](O)[C@@H](C)/C=C/C=C/C=C/C=C/C=C/C=C/C=C/[C@H](O[C@@H]2O[C@H](C)[C@@H](O)[C@H](N)[C@@H]2O)C[C@@H]2O[C@](O)(C[C@@H](O)C[C@@H](O)[C@H](O)CC[C@@H](O)C[C@@H](O)CC(=O)O[C@H]1C)C[C@H](O)[C@H]2C(=O)O [AMB, Amphotericin B] | 0.12 |  |  |  |  |  |  |  |  |  |  |  |  | CC50 at 72 h (Cytotoxicity assay (MTT); peritoneal macrophages, 72 h of incubation, MTT, interval in brackets, read-out: Peritoneal macrophages CC50): 21.8 µM
2 | N=C(N)c1ccccc1 [Benzamidine, benzamidine] | > 200 | did not change the viability | most reduced the intracellular survival | reduced the cell viability | did not change the entry |  |  |  |  |  |  |  |  | inhibition of the proteolytic activity ([2]; 1 mM): 72%; IC50 [6]: > 200 µM; CC50 at 72 h (Cytotoxicity assay (MTT)): 240 µM; viability of L. amazonensis promastigotes ([7]; 1 mM, 48 h and 72 h of treatment): reduced the viability; permanence and survival of amastigotes within host cells ([8]; promastigotes pretreated 1 h with 200 µM or 6.25 µM, up to 72 h): did not alter the permanence and survival
3 | CC(C)C[C@H](NC(=O)[C@H]1O[C@@H]1C(=O)O)C(=O)NCCCCN=C(N)N [E-64] |  |  |  |  |  |  |  |  |  |  |  |  |  | enzymatic activity on serine protease substrate ([9]; 3 µM): no impact on the activity
4 | Cc1ccc(S(=O)(=O)N[C@@H](Cc2ccccc2)C(=O)CCl)cc1 [TPCK, N-p-tosyl-L-phenylalanine chloromethyl ketone] |  | not able to change cell viability |  |  | did not alter the entry | no difference in NO production | 139 | 14.6 | 14.2 | able to inhibit the enzymatic activity | no difficulty was observed in conversion | reduction in the number of amastigotes | impairs the intracellular survival | inhibition of the proteolytic activity ([2]; concentration not given): 52%; viability of promastigotes after 1 h of treatment ([3]; 30 µM, after 72 h of incubation): slight reduction in the viability; lesion size and parasite load (L. amazonensis): reduction in lesion size and parasite load; growth of promastigotes and intracellular amastigotes ([13]; L. amazonensis): growth inhibition of promastigotes and intracellular amastigotes; cell viability of L. donovani promastigotes (reduction) ([5]; concentration not given): only did so after 15 h and 20 h; viability of L. amazonensis promastigotes ([7]; 100 µM, after 4 h, 48 h and 72 h of incubation): reducing cell viability; survival of parasites within macrophages compared with the negative control ([8]; promastigotes pretreated 1 h with 30 µM or 15 µM, 24 h and 48 h after infection): reduced survival; survival of parasites within macrophages compared with the negative control ([8]; promastigotes pretreated 1 h with 30 µM, 15 µM or 7.5 µM, 72 h after infection): reduced survival
5 | PF-429242 |  | not able to change cell viability |  |  | did not alter the entry | no difference in NO production | 189 | 0.83 | 120 | able to inhibit the enzymatic activity | no difficulty was observed in conversion | reduction in the number of amastigotes | impairs the intracellular survival | growth of promastigotes ([13]; different strains of L. amazonensis): inhibition of the growth of promastigotes; survival of parasites within macrophages compared with the control ([8]; promastigotes pretreated 1 h with 3.2 µM, 1.6 µM or 0.8 µM, 48 h and 72 h after infection): reduced survival
6 | aprotinin |  |  | most reduced the intracellular survival | reduced the cell viability |  |  |  |  |  |  |  |  |  | inhibition of the proteolytic activity ([2]; 1 µM): 100%
